According to publication PMC11500415, “Chemical inhibition of stomatal differentiation by perturbation of the master-regulatory bHLH heterodimer via an ACT-Like domain” (Nature Communications, 2024):
Values joined by “and” are separate entries in the source; they are usually repeats but may differ in a detail not shown here. Equal values may be shown once. Read-outs that look alike come from different tables or passages of the source.

Legend:
Experiment in all cases: BLI direct binding
Set-up in all cases: species or system A. thaliana
[1] = target: T1, MUTE_ACTLR133A_R134A (Arabidopsis thaliana, UniProt Q9M8K6, R133A/R134A); settings: for koff: read-out: kdis(1/s), MUTE_R133A_R134A on Anti-GST sensor
T1 construct: MUTE-ACTL (114-202); made in house; host or cells: E. coli BL21
T1 sequence (Q9M8K6 114-202 R133A/R134A): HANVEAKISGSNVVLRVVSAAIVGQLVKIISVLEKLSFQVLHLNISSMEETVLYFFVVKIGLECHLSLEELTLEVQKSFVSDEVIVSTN
Description: (§1) A. thaliana SCRM (1-494), ΔNSPCH (98-364), MUTE (1-202), ΔNFAMA (190-414), MUTEΔC (1-114), MUTER133A_R134A, MUTEE162A_E163A, MUTER133A_R134A_E162A_E163A, SCRM-ACTL (405-494), MUTE-ACTL (114-202), SPCH-ACTL (285-364), FAMA-ACTL (306-414), MUTE_ACTLR133A_R134A, MUTE_ACTLE162A_E163A, MUTE_ACTLR133A_R134A_E162A_E163A were cloned into pGEX-4T-1 vector with an N-terminal GST tag and a thrombin cleavage sequence. For protein expression, the constructs were transformed into E. coli strain BL21. For each transformant, a single colony was selected and incubated in 10 ml LB liquid media. The overnight-incubated E. coli suspensions were transferred to 1 L LB medium and incubated at 37 °C for around 2 h until the OD600 reached 0.4–0.6. The isopropyl β-D-1-thiogalactopyranoside ([…] of final concentration) was added to the cultures and the strains were incubated at 22 °C for a further 18 h. GST-fused proteins were purified using glutathione agarose resin. The soluble portion of the cell lysate was loaded onto a GST-Sepharose column. Nonspecifically bound proteins were removed by washing the column with 20 mM Tris pH 8.0, 200 mM NaCl. The bound GST-fused protein was eluted with 10 mm glutathione and 20 mM Tris pH 8.0, 200 mM NaCl. The GST-fused proteins were exchanged with phosphate-buffered saline buffer, and then the solution was treated with 50 μg of thrombin for 10–12 h at 16 ^οC. The GST portion of the protein was cleaved during thrombin digestion, and then the whole solution was reloaded onto the glutathione S-transferase column to obtain pure protein. The purified proteins were further purified by gel filtration on a Superdex-200 (GE) column using fast protein liquid chromatography and phosphate buffer (pH 7.2) as the eluent. The purity of the protein was checked by SDS-PAGE. For detailed lists of oligo DNA and plasmid information, see Supplementary Tables 5, 6, respectively.
(§2) The binding affinities of SCRM to MUTE / MUTER133A_R134A / MUTEE162A_E163A / MUTER133A_R134A_E162A_E163A in presence and absence of Stomidazolone (3) and its analogues (AYSJ1059 (5) and AYSJ1061 (6)), and Stomidazolone / AYSJ1059 / AYSJ1061 interactions with GST-tagged SCRM, MUTE, SPCH, FAMA, MUTE ΔACTL, MUTE_ACTL, SCRM_ACTL, SPCH_ACTL and FAMA_ACTL, MUTER133A_134A, MUTEE162A_E163A, MUTER133A_R134A_E162A_E163A were measured using the Octet Red96 system (ForteBio, Pall Life Sciences) following the manufacturer’s protocols. The optical probes coated with anti-GST were first loaded with 500 nM GST tagged proteins before kinetic binding analyses. The experiment was performed in 96-well plates maintained at 30 °C. Each well was loaded with 200 μL reaction volume for the experiment. The binding buffer used in these experiments contained 1× PBS supplemented with 2% DMSO, 0.02% Tween20. The concentrations of the Stomidazolone as the analyte in the binding buffer were 100, 50, 25, 12.5, 6.25, 3.12, and 1.56 μM. There was no binding of the analytes to the unloaded probes as shown by the control wells. Binding kinetics to all seven concentrations of the analytes were measured simultaneously using default parameters on the instrument. The data were analyzed using the Octet data analysis software. The association and dissociation curves were fit with the 1:1 homogeneous ligand model. The kobs (observed rate constant) values were used to calculate Kd, with steady-state analysis of the direct binding. See Supplementary Table 3 for details.

[2] = target: T2, MUTE_ACTLR133A_R134A_E162A_E163A (Arabidopsis thaliana, UniProt Q9M8K6, E162A/E163A/R133A/R134A); settings: for Response: MUTE_R133A_R134A_E162A_E163A on Anti-GST sensor, rep-1, rep-2
T2 construct: MUTE-ACTL (114-202); made in house; host or cells: E. coli BL21
T2 sequence (Q9M8K6 114-202 R133A/R134A/E162A/E163A): as the sequence (Q9M8K6 114-202 R133A/R134A) above, with E49A, E50A counted along it
Description: as §1, §2

[3] = target: T3, SPCH_ACTL (Arabidopsis thaliana, UniProt Q700C7)
T3 construct: SPCH-ACTL (285-364); GST (N, cleaved yes); made in house; host or cells: E. coli BL21
T3 sequence (Q700C7 285-364): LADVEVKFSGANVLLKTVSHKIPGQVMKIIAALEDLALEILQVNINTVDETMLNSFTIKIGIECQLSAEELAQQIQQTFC
Description: as §1, §2

[4] = MUTE_R133A_R134A on Anti-GST sensor, Stomid 3.12 µM, rep-1, rep-2
[5] = MUTE_R133A_R134A on Anti-GST sensor, Stomid 6.25 µM, rep-1, rep-2
[6] = MUTE_R133A_R134A on Anti-GST sensor, Stomid 12.5 µM, rep-1, rep-2
[7] = MUTE_R133A_R134A on Anti-GST sensor, Stomid 25 µM, rep-1, rep-2
[8] = MUTE_R133A_R134A on Anti-GST sensor, Stomid 50 µM, rep-1, rep-2
[9] = MUTE_R133A_R134A on Anti-GST sensor, Stomid 100 µM, rep-1, rep-2
[10] = MUTE_R133A_R134A on Anti-GST sensor, Stomid 200 µM, rep-1, rep-2

O=C1C(c2ccccc2)=NC(NS(=O)(=O)c2ccccc2)(c2ccccc2)N1S(=O)(=O)c1ccccc1 (stereo not drawn) [Stomidazolone]
Kd ([1]; BLI, MUTE_ACTL R133A_R134A): 120 ± 5.5 µM | Kd [1, 4]: 127 µM and 126 µM | RMax [1, 4]: 0.03 and 0.048 | Req/Rmax(%) [1, 4]: 93.1% and 100% | Response [1, 4]: 0.027 and 0.0456 | Kd [1, 5]: 128 µM and 127 µM | RMax [1, 5]: 0.06 and 0.08 | Req/Rmax(%) [1, 5]: 100% | Response [1, 5]: 0.058 and 0.079 | kobs [1, 5]: 0.00193 s⁻¹ and 0.00258 s⁻¹ | kon [1, 5]: 976 M⁻¹ s⁻¹ | Kd [1, 6]: 126 µM and 124 µM | RMax [1, 6]: 0.092 and 0.085 | Req/Rmax(%) [1, 6]: 93.1% and 100% | Response [1, 6]: 0.092 and 0.081 | kdis [1, 6]: 0.124 s⁻¹ | Kd [1, 7]: 128 µM and 126 µM | Req/Rmax(%) [1, 7]: 78.8% and 93.9% | kdis [1, 7]: 0.123 s⁻¹ | kobs [1, 7]: 0.00186 s⁻¹ and 0.00281 s⁻¹ | kon [1, 7]: 975 M⁻¹ s⁻¹ | Kd [1, 8]: 127 µM and 125 µM | RMax [1, 8]: 0.195 and 0.225 | Response [1, 8]: 0.193 and 0.2221 | kdis [1, 8]: 0.122 s⁻¹ | kon [1, 8]: 976 M⁻¹ s⁻¹ | Kd [1, 9]: 130 µM and 127 µM | RMax [1, 9]: 0.244 and 0.289 | Req/Rmax(%) [1, 9]: 96.5% and 96.6% | Response [1, 9]: 0.242 and 0.284 | kobs [1, 9]: 0.00717 s⁻¹ and 0.00706 s⁻¹ | kon [1, 9]: 980 M⁻¹ s⁻¹ | Kd [1, 10]: 127 µM and 130 µM | RMax [1, 10]: 0.344 and 0.38 | Req/Rmax(%) [1, 10]: 99.9% and 99.8% | Response [1, 10]: 0.341 and 0.375 | kdis [1, 10]: 0.125 s⁻¹ | kobs [1, 10]: 0.0285 s⁻¹ and 0.0284 s⁻¹ | kon [1, 10]: 960 M⁻¹ s⁻¹ | koff ([1]; Stomid 3.12 µM, rep-1, rep-2): 0.122 s⁻¹ | koff ([1]; Stomid 6.25 µM, rep-1, rep-2): 0.124 s⁻¹ | koff ([1]; Stomid 12.5 µM, rep-1, rep-2): 0.125 s⁻¹ | koff ([1]; Stomid 25 µM, rep-1, rep-2): 0.125 s⁻¹ | koff ([1]; Stomid 50 µM, rep-1, rep-2): 0.123 s⁻¹ | koff ([1]; Stomid 100 µM, rep-1, rep-2): 0.125 s⁻¹ | koff ([1]; Stomid 200 µM, rep-1, rep-2): 0.126 s⁻¹ | kon ([1]; read-out: kon(1/Ms), MUTE_R133A_R134A on Anti-GST sensor, Stomid 3.12 µM, rep-1, rep-2): 966 M⁻¹ s⁻¹ | kon ([1]; read-out: kon(1/Ms), MUTE_R133A_R134A on Anti-GST sensor, Stomid 6.25 µM, rep-1, rep-2): 970 M⁻¹ s⁻¹ | kon ([1]; read-out: kon(1/Ms), MUTE_R133A_R134A on Anti-GST sensor, Stomid 12.5 µM, rep-1, rep-2): 990 M⁻¹ s⁻¹ | kon ([1]; read-out: kon(1/Ms), MUTE_R133A_R134A on Anti-GST sensor, Stomid 25 µM, rep-1, rep-2): 980 M⁻¹ s⁻¹ | kon ([1]; read-out: kon(1/Ms), MUTE_R133A_R134A on Anti-GST sensor, Stomid 50 µM, rep-1, rep-2): 970 M⁻¹ s⁻¹ | kon ([1]; read-out: kon(1/Ms), MUTE_R133A_R134A on Anti-GST sensor, Stomid 100 µM, rep-1, rep-2): 960 M⁻¹ s⁻¹ | kon ([1]; read-out: kon(1/Ms), MUTE_R133A_R134A on Anti-GST sensor, Stomid 200 µM, rep-1, rep-2): 990 M⁻¹ s⁻¹ | KD (SS) ([2]; BLI steady state, MUTE_ACTL R133A_R134A_E162A_E163A, ND = no binding was detected): no binding was detected | Response ([2]; Stomid 3.12 µM): 0.021 and 0.041 | Response ([2]; Stomid 6.25 µM): 0.061 and 0.035 | Response ([2]; Stomid 12.5 µM): 0.063 and 0.047 | Response ([2]; Stomid 25 µM): 0.078 and 0.041 | Response ([2]; Stomid 50 µM): 0.062 and 0.082 | Response ([2]; Stomid 100 µM): 0.075 and 0.108 | Response ([2]; Stomid 200 µM): 0.104 and 0.136 | Kd ([3]; BLI steady state, read-out: KD (SS)): 95.2 ± 3.8 µM | Kd ([3]; BLI, read-out: KD): 88.1 ± 1.1 µM
